Assay results from US11098026B2, “Fused bicyclic compounds, compositions and applications thereof” (IMPETIS BIOSCIENCES LIMITED, priority 2017, dated 2021).

Molecular target: T1, human GPR91 receptor (Homo sapiens, UniProt Q9BXA5)
T1 construct: expressed in transfected cells; host or cells: CHO-K1 NFAT cells
T1 sequence (Q9BXA5 1-334): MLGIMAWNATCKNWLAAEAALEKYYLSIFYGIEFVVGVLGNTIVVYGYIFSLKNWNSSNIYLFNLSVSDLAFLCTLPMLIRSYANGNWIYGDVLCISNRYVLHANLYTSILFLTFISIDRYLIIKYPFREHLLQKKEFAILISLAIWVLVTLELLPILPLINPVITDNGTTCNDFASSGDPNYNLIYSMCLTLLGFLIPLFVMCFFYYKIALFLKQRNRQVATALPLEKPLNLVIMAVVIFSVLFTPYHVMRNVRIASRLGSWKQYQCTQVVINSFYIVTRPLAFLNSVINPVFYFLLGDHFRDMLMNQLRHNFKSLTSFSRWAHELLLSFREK
Experiment: Human GPR91 calcium mobilization assay
Type: cell-based
Settings: CHO-K1 NFAT cells over expressing human GPR91 receptor; Fluo4 AM; agonist sodium succinate; flex station; read-out: hGPR91 IC50 (μM)*
Method: Human GPR91 Calcium Mobilization Assay
To determine IC50 in CHO NFAT cells over expressing human GPR91 receptor calcium mobilization assay in flex station mode was carried out.
Grow CHO-K1 NFAT cells over expressing human GPR91 receptors in alpha MEM media were supplemented with 10% FBS (heat inactivated), 0.5 mg/ml of G-418, 0.5 mg/ml of Zeocin and 0.6 mg/ml of Hygromycin B.
The cells were seeded at least 21 hours before the experiment at the density of 25000/well in 96 well plate (Corning cat #no. 3603). It was made sure that cells were at least 95% confluent on the day of assay. No antibiotics were used for seeding purpose.
On the day of assay the media was discarded from plates and plates were washed with 100 μl of HBSS assay buffer. The plates were loaded with Fluo4 AM at 2 μM concentration. Pluronic F-127 dye was solubilized in calcium assay buffer containing 0.1% BSA, i.e., 20 μl dye+20 μl Pluronic F127 for 10 ml. Appropriate amounts of 100× probenecid was added to the loading mixture 1× final (100 μl per 10 ml). Total volume of dye loaded was made 100 μl. The plate was then wrapped in aluminium foil to protect from light and were incubated for 90 mins at 37 degrees in cell culture incubator. At the end of incubation the plates was washed again with 100 μl of HBSS buffer without BSA and 75 μl of HBSS buffer was added (without BSA) to the plate.
Further, 8 point-Dose response curve of the compounds of the present disclosure was prepared in 100% DMSO followed by 57.14-fold dilution to 1.75× in 1.75% DMSO in assay buffer. 100 μL of 1.75×NCE was added to the wells as shown below and incubated at room temp on orbital shaker at 300 rpm for 15 min. Flexstation [excitation @ 485 nm and emission @ 525 nm] for a total time of 60 seconds. 25 μL of 8× agonist (800 μM sodium succinate) was added to each well using the flexstation after establishing the baseline for 20 sec, Measurement—Max-Min over 60 sec. Using the above protocol results obtained are tabulate din the Table 1 below: […]

SMILES | IC50 [µM]
Cc1nc2ccc(Oc3ccc(Oc4cccc(CC(=O)O)c4)c(C4CC4)c3)cc2n1C1COC1 [Compound A-39, 2-[3-[2-cyclopropyl-4-[2-methyl-3-(oxetan-3-yl)benzimidazol-5-yl]oxy-phenoxy]phenyl]acetic acid] | < 5
O=C(O)CCc1cccc(Oc2ccc(Oc3cccc4cnncc34)cc2C(F)(F)F)c1 [Compound A-3, 3-[3-[4-phthalazin-5-yloxy-2-(trifluoromethyl)phenoxy]phenyl]propanoic acid] | < 5
O=C(O)Cc1cccc(Oc2ccc(Oc3ccc(Cl)c4cnncc34)cc2C(F)(F)F)c1 [Compound A-4, 2-[3-[4-(8-chlorophthalazin-5-yl)oxy-2-(trifluoromethyl)phenoxy]phenyl]acetic acid] | < 5
Cc1nc2ccc(Oc3ccc(Oc4cccc(CC(=O)O)c4)c(C(F)(F)F)c3)cc2n1C1COC1 [Compound A-27, 2-[3-[4-[2-methyl-3-(oxetan-3-yl)benzimidazol-5-yl]oxy-2-(trifluoromethyl)phenoxy]phenyl]acetic acid] | < 5
O=C(O)Cc1cccc(Oc2ccc(Oc3ccc4ccn(C5COC5)c4c3)cc2C(F)(F)F)c1 [Compound A-20, 2-[3-[4-[1-(oxetan-3-yl)indol-6-yl]oxy-2-(trifluoromethyl)phenoxy]phenyl]acetic acid] | < 5
O=C(O)Cc1cccc(Oc2ccc(Oc3cccc4cnncc34)cc2C(F)(F)F)c1 [Compound A-2, 2-[3-[4-phthalazin-5-yloxy-2-(trifluoromethyl)phenoxy]phenyl]acetic acid] | < 5
Cn1cc2c(Oc3ccc(Oc4cccc(CC(=O)O)c4)c(C(F)(F)F)c3)cccc2n1 [Compound A-15, 2-[3-[4-(2-methylindazol-4-yl)oxy-2-(trifluoromethyl)phenoxy]phenyl]acetic acid] | < 5
O=C(O)Cc1cccc(Oc2ccc(Oc3cccc4[nH]ncc34)cc2C(F)(F)F)c1 [Compound A-48, 2-[3-[4-(1H-indazol-4-yloxy)-2-(trifluoromethyl)phenoxy]phenyl]acetic acid] | < 5
Cc1ncc2c(Oc3ccc(Oc4cccc(CC(=O)O)c4)c(C(F)(F)F)c3)cccn12 [Compound B-4, 2-[3-[4-(3-methylimidazo[1,5-a]pyridin-8-yl)oxy-2-(trifluoromethyl)phenoxy]phenyl]acetic acid] | 5 to 10
O=C(O)Cc1cccc(Oc2ccc(Oc3ccc4cnc(C5COC5)n4c3)cc2C(F)(F)F)c1 [Compound B-5, 2-[3-[4-[3-(oxetan-3-yl)imidazo[1,5-a]pyridin-6-yl]oxy-2-(trifluoromethyl)phenoxy]phenyl]acetic acid] | 5 to 10
O=C(O)Cc1cccc(Oc2ccc(Oc3cnc4ncn(C5COC5)c4c3)cc2C(F)(F)F)c1 [Compound A-29, 2-[3-[4-[1-(oxetan-3-yl)imidazo[4,5-b]pyridin-6-yl]oxy-2-(trifluoromethyl)phenoxy]phenyl]acetic acid] | > 10
O=C(O)Cc1cccc(Oc2ccc(Oc3ccc(F)c4ccncc34)cc2C(F)(F)F)c1 [Compound A-8, 2-[3-[4-[(5-fluoro-8-isoquinolyl)oxy]-2-(trifluoromethyl)phenoxy]phenyl]acetic acid] | < 5
O=C(O)Cc1cccc(Oc2ccc(Oc3cccc4ccncc34)c(C(F)(F)F)c2)c1 [Compound E-1, 2-[3-[4-(8-isoquinolyloxy)-3-(trifluoromethyl)phenoxy]phenyl]acetic acid] | > 10
O=C(O)Cc1cccc(Oc2ccc(Oc3ccc4c(ccn4CC(=O)O)c3)cc2C(F)(F)F)c1 [Compound A-32, 2-[3-[4-[1-(carboxymethyl)indol-5-yl]oxy-2-(trifluoromethyl)phenoxy]phenyl]acetic acid] | > 10
O=C(O)Cc1cccc(Oc2ccc(Oc3ccc4ccn(C5COC5)c4n3)cc2C(F)(F)F)c1 [Compound A-30, 2-[3-[4-[1-(oxetan-3-yl)pyrrolo[2,3-b]pyridin-6-yl]oxy-2-(trifluoromethyl)phenoxy]phenyl]acetic acid] | > 10
Cc1ncc2cccc(Oc3ccc(Oc4cccc(CC(=O)O)c4)c(C(F)(F)F)c3)n12 [Compound B-3, 2-[3-[4-(3-methylimidazo[1,5-a]pyridin-5-yl)oxy-2-(trifluoromethyl)phenoxy]phenyl]acetic acid] | < 5
O=C(O)Cc1cccc(Oc2ccc(Oc3cccc4ccncc34)cc2C2CC2)c1 [Compound A-38, 2-[3-[2-cyclopropyl-4-(8-isoquinolyloxy)phenoxy]phenyl]acetic acid] | < 5
O=C(O)Cc1cccc(Oc2ccc(Oc3ccc4cnc(C(=O)O)n4c3)cc2C(F)(F)F)c1 [Compound A-31, 6-[4-[3-(carboxymethyl)phenoxy]-3-(trifluoromethyl)phenoxy]imidazo[1,5-a]pyridine-3-carboxylic acid] | < 5
O=C(O)Cc1cccc(Oc2ccc(Oc3cccc4ncncc34)cc2C(F)(F)F)c1 [Compound A-9, 2-[3-[4-quinazolin-5-yloxy-2-(trifluoromethyl)phenoxy]phenyl]acetic acid] | < 5
FC(F)(F)c1cc(Oc2cccc3ccncc23)ccc1Oc1cccc(CCc2nnc[nH]2)c1 [Compound D-1, 8-[4-[3-[2-(4H-1,2,4-triazol-3-yl)ethyl]phenoxy]-3-(trifluoromethyl)phenoxy]isoquinoline] | > 10
Cn1ncc2cccc(Oc3ccc(Oc4cccc(CC(=O)O)c4)c(C(F)(F)F)c3)c21 [Compound A-5, 2-[3-[4-(1-methylindazol-7-yl)oxy-2-(trifluoromethyl)phenoxy]phenyl]acetic acid] | < 5
O=C(O)CCc1cccc(Oc2ccc(Oc3ccnc4ccccc34)cc2C(F)(F)F)c1 [Compound A-13, 3-[3-[4-(4-quinolyloxy)-2-(trifluoromethyl)phenoxy]phenyl]propanoic acid] | > 10

Other lines, results leading:

IC50 [µM] | SMILES
< 5 | N#Cc1n[nH]c2ccc(Oc3ccc(Oc4cccc(CC(=O)O)c4)c(C(F)(F)F)c3)cc12 [Compound A-46, 2-[3-[4-[(3-cyano-1H-indazol-5-yl)oxy]-2-(trifluoromethyl)phenoxy]phenyl]acetic acid]
> 10 | CN1CCc2cccc(Oc3ccc(Oc4cccc(CCC(=O)O)c4)c(C(F)(F)F)c3)c2C1 [Compound A-10, 3-[3-[4-[(2-methyl-3,4-dihydro-1H-isoquinolin-8-yl)oxy]-2-(trifluoromethyl)phenoxy]phenyl]propanoic acid]
< 5 | O=C(O)Cc1cccc(Oc2ccc(Oc3ccc4cnn(C5COC5)c4c3)cc2C(F)(F)F)c1 [Compound A-21, 2-[3-[4-[1-(oxetan-3-yl)indazol-6-yl]oxy-2-(trifluoromethyl)phenoxy]phenyl]acetic acid]
< 5 | O=C(O)Cc1cccc(Oc2ccc(Oc3ccc4nnn(C5COC5)c4c3)cc2C(F)(F)F)c1 [Compound A-25, 2-[3-[4-[3-(oxetan-3-yl)benzotriazol-5-yl]oxy-2-(trifluoromethyl)phenoxy]phenyl]acetic acid]
< 5 | O=C(O)Cc1cccc(Oc2ccc(Oc3ccc4ccn(CC(=O)O)c4c3)cc2C(F)(F)F)c1 [Compound A-33, 2-[3-[4-[1-(carboxymethyl)indol-6-yl]oxy-2-(trifluoromethyl)phenoxy]phenyl]acetic acid]
< 5 | O=C(O)Cc1cccc(Oc2ccc(Oc3ccc4ncn(C5COC5)c4c3)cc2C(F)(F)F)c1 [Compound A-26, 2-[3-[4-[3-(oxetan-3-yl)benzimidazol-5-yl]oxy-2-(trifluoromethyl)phenoxy]phenyl]acetic acid]
> 10 | O=C(O)Cc1cccc(Oc2ccc(Oc3ccc4nn(C5COC5)cc4c3)cc2C(F)(F)F)c1 [Compound A-24, 2-[3-[4-[2-(oxetan-3-yl)indazol-5-yl]oxy-2-(trifluoromethyl)phenoxy]phenyl]acetic acid]
< 5 | Cn1ncc2c(Oc3ccc(Oc4cccc(CC(=O)O)c4)c(C(F)(F)F)c3)cccc21 [Compound A-16, 2-[3-[4-(1-methylindazol-4-yl)oxy-2-(trifluoromethyl)phenoxy]phenyl]acetic acid]
> 10 | O=C(O)CCc1cccc(Oc2ccc(Oc3cccc4nccn34)cc2C(F)(F)F)c1 [Compound A-37, 3-[3-[4-imidazo[1,2-a]pyridin-5-yloxy-2-(trifluoromethyl)phenoxy]phenyl]propanoic acid]
